Values quoted from earlier work, collected in patent publication US20100197018A1, “USE OF SUBSTRATES AS PHARMACOLOGICAL CHAPERONES” (AMICUS THERAPEUTICS, INC., priority 2007, published 2010).
Where two headings read alike, the source gives them in different places. Marks after values point to notes of the source that are not given here.

Key:
[1] = molecular target: T1, N-acetyl-glucosamine-6-sulfate sulfatase (6S) Form A (Homo sapiens, UniProt P15586); details: for Relative catalytic efficiency*: kcat./Km calculated relative to a value for GlcNAc6S = 1; for pH optimum: Table 6; for Ratio of catalytic efficiencies: form A/form B: form A over form B; for Relative catalytic efficiency*, value in parentheses: relative to GlcNAc6S = 1
T1 sequence (P15586 37-552): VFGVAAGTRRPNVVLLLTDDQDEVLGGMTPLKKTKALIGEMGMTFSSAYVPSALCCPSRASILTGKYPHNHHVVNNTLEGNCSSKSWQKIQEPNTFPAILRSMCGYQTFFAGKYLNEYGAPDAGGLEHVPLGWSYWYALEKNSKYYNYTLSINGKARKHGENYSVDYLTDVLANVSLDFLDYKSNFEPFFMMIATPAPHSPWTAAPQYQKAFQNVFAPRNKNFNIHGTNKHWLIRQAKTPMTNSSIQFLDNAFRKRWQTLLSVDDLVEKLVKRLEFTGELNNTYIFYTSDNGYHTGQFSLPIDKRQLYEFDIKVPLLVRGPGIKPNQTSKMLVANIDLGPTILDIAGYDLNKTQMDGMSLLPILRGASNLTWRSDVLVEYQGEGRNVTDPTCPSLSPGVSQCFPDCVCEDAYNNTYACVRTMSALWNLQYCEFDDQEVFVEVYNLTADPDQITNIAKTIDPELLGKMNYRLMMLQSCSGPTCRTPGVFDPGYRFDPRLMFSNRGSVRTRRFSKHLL

heparan-N-sulfatase = molecular target: T2, heparan-N-sulfatase (Homo sapiens, UniProt P51688); details: for Relative catalytic efficiency*: GlcNS = 1.00; for pH optimum of the enzyme for the substrate: purified enzyme
T2 sequence (P51688 21-502): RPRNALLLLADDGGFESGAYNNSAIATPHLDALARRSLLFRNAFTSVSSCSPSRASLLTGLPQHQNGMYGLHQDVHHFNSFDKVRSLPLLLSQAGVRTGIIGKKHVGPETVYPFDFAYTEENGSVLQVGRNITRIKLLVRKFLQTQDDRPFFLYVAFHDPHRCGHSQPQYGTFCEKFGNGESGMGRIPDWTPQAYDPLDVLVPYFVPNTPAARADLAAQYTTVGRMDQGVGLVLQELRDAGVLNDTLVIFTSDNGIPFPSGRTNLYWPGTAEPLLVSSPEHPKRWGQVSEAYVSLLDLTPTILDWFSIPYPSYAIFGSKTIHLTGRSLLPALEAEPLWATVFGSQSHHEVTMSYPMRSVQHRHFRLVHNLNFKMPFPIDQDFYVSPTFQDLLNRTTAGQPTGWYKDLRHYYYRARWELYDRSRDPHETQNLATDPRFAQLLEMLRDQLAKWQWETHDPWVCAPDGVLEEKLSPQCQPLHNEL

[2] = molecular target: T3, N-acetyl-glucosamine-6-sulfate sulfatase (6S) Form B (Homo sapiens, UniProt P15586)
T3 sequence (P15586 37-552): T1 sequence (P15586 37-552)

[3] = in vivo
BACEI = BACEI (Homo sapiens, UniProt P56817); details: low concentrations
[4] = 37°, pH: GlcNS-Ido 6.7, GlcNS-Ido2S 5.5, GlcNS-IdOA 5.6, GlcNS-IdoA-GlcNS-IdOA 5.6, GlcNS-IdoA2S-anM6S 3.6, GlcNS6S-Ido 4.2, GlcNS6S-Ido2S 3.8, GlcNS6S-IdOA 4.2
[5] = rows whose other values are marked †
[6] = values marked † (60° C. per footnote), pH: GlcNS 5.6, GalNS 5.6, GlcNS-IdOA 5.4
[7] = Form A, parentheses not explained
[8] = Form A, second line of the substrate, parentheses not explained
[9] = Form A, second line of the substrate, parentheses not explained, read-out: Km, value in parentheses
[10] = second line of the substrate, parentheses not explained
[11] = second line of the substrate, parentheses not explained, read-out: Km, value in parentheses
[12] = 37°, pH 5.6 (second line of the substrate)

Chain of BACEI (P56817 46-457 limits assumed): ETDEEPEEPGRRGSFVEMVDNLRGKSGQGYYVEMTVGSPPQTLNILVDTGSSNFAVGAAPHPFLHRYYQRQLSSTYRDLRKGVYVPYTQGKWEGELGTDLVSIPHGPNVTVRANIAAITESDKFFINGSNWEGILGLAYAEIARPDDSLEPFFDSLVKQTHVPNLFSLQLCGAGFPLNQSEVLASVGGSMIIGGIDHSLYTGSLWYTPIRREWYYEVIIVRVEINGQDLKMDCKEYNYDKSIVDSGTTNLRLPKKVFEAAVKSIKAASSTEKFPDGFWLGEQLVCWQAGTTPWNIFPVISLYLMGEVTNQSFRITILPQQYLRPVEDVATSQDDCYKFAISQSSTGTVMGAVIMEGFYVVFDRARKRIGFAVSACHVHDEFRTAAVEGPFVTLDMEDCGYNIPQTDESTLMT

| Molecule | kcat. (turnover number) ([1]; Form A) | Relative catalytic efficiency* ([1]; Form A) | Km ([1]; Form A, read-out: Km) | pH optimum [1] | Ratio of catalytic efficiencies: form A/form B [1] | Relative catalytic efficiency* (heparan-N-sulfatase; 37°, pH (optimum)) | Km (heparan-N-sulfatase; [4]) | kcat. (turnover number) (heparan-N-sulfatase; [4]) | Km ([2]; read-out: Km) | also measured |
| --- | --- | --- | --- | --- | --- | --- | --- | --- | --- | --- |
| CC(=O)N[C@H]1C(O)O[C@H](COS(=O)(=O)O)[C@@H](O)[C@@H]1O (some centres unmarked) [GlcNAc6S, N-acetyl-glucosamine 6-sulfate] | 0.165 mol/min per mol of enzyme | 1.0 | 7.1 µM | 5.7 | 2.1 |  |  |  | 10 µM | pH optimum of 6S activity [1]: 5.7; decrease in the Km ([1]; addition of a 2-acetamido group to Glc6S): 6-9 fold; effect on Kcat ([1]; relative to the parent substrate (Glc6S for GlcNAc6S; GlcNAc6S for GlcNAc6S-Ido)): decrease in Kcat |
| heparan sulphate |  |  |  |  |  |  |  |  |  | oral activity [3]: orally active |
| O=C[C@H](O)[C@@H](O)[C@H](O)[C@H](O)COS(=O)(=O)O [Glc6S, glucose 6-sulfate] | 0.585 mol/min per mol of enzyme | 0.4 | 62.5 µM | 5.7 | 1.3 |  |  |  | 62.5 µM | Kcat [1]: 0.585 mol/min/mol enzyme; pH optimum of 6S activity [1]: 5.7; Km ([1]; read-out: Km): 62.5 µM |
| heparin |  |  |  |  |  |  |  |  |  | effect on partially active BACEI (BACEI): stimulate partially active BACEI |
| 2-sulphoamino-glucosamine [GlcNS] |  |  |  |  |  |  |  |  |  | kcat. (turnover number), value in parentheses (heparan-N-sulfatase; in parentheses under the † value, parentheses not explained, pH 5.6): (0.0005) mol/min per mol of enzyme; pH optimum of the enzyme for the substrate (heparan-N-sulfatase): 5.6; Relative catalytic efficiency* (heparan-N-sulfatase; [5]): 1.00; Km (heparan-N-sulfatase; [6]): 0.7 µM; kcat. (turnover number) (heparan-N-sulfatase; [6]): 0.0021† mol/min per mol of enzyme |
| CC(=O)N[C@H]1[C@@H](O[C@@H]([C@H](O)[C@@H](O)CO)[C@@H](O)C(=O)O)O[C@H](COS(=O)(=O)O)[C@@H](O)[C@@H]1O [GlcNAc6S-IdOA, O-(α-N-acetylglucosamine 6-sulphate)-(1-3)-L-idonic acid] | 7.90 mol/min per mol of enzyme | 31 | 11.1 µM | 5.0 | 2.4 |  |  |  | 14.3 µM | pH optimum of 6S activity [1]: 5.0; Relative catalytic efficiency*, value in parentheses [1, 7]: (29); kcat. (turnover number), value in parentheses [1, 8]: (6.79) mol/min per mol of enzyme; Km [1, 9]: 10 µM; Ratio of catalytic efficiencies: form A/form B, value in parentheses [1, 10]: (2.8); pH optimum, value in parentheses [1, 10]: (5.0); Km [2, 11]: 13.2 µM |
| O=C(O)[C@H](O)[C@@H](O[C@H]1O[C@H](COS(=O)(=O)O)[C@@H](O)[C@H](O)[C@H]1NS(=O)(=O)O)[C@H](O)[C@@H](O)CO [GlcNS6S-IdOA, O-(α-2-sulphaminoglucosamine 6 sulphate)-(1-3)-L-idonic acid] | 2.46 mol/min per mol of enzyme | 13 | 8 µM | 5.0 | 2.2 | 33 | 2.5 µM | 0.105 mol/min per mol of enzyme | 8.3 µM | Relative catalytic efficiency*, value in parentheses [1, 7]: (9.8); kcat. (turnover number), value in parentheses [1, 8]: (1.725) mol/min per mol of enzyme; Km [1, 9]: 7.6 µM; Ratio of catalytic efficiencies: form A/form B, value in parentheses [1, 10]: (2.5); pH optimum, value in parentheses [1, 10]: (5.0); Km (heparan-N-sulfatase; [12]): 2.4 µM; kcat. (turnover number) (heparan-N-sulfatase; [12]): 0.088 mol/min per mol of enzyme; Relative catalytic efficiency* (heparan-N-sulfatase; [12]): 50; Km [2, 11]: 6.6 µM |

More lines, main results first:

| kcat. (turnover number) ([1]; Form A) | Relative catalytic efficiency* ([1]; Form A) | Km ([1]; Form A, read-out: Km) | pH optimum [1] | Ratio of catalytic efficiencies: form A/form B [1] | Relative catalytic efficiency* (heparan-N-sulfatase; 37°, pH (optimum)) | Km (heparan-N-sulfatase; [4]) | kcat. (turnover number) (heparan-N-sulfatase; [4]) | Km ([2]; read-out: Km) | Molecule | also measured |
| --- | --- | --- | --- | --- | --- | --- | --- | --- | --- | --- |
| 0.518 mol/min per mol of enzyme | 2.1 | 10.8 µM | 4.8 | 1.9 | 28 | 3 µM | 0.061 mol/min per mol of enzyme | 9.2 µM | O=C[C@H](O)[C@@H](O)[C@H](O[C@H]1O[C@H](COS(=O)(=O)O)[C@@H](O)[C@H](O)[C@H]1NS(=O)(=O)O)[C@@H](O)CO [GlcNS6S-Ido, O-(α-2-sulphaminoglucosamine 6-sulphate)-(1-4)-L-idose] |  |
|  |  |  |  |  | 359 | 35 µM | 9.19 mol/min per mol of enzyme |  | O=C[C@H](O)[C@@H](O)[C@H](O[C@H]1O[C@H](CO)[C@@H](O)[C@H](O)[C@H]1NS(=O)(=O)O)[C@@H](O)C(=O)O [GlcNS-IdOA, O-(α-2-sulphaminoglucosamine)-(1-4)-O-L-iduronic acid] | pH optimum of the enzyme for the substrate (heparan-N-sulfatase): 5.5; Relative catalytic efficiency* (heparan-N-sulfatase; [5]): 1477; Km (heparan-N-sulfatase; [6]): 40.8 µM; kcat. (turnover number) (heparan-N-sulfatase; [6]): 44† mol/min per mol of enzyme |
| 0.201 mol/min per mol of enzyme | 3.8 | 2.3 µM | 4.2 |  | 388 | 4.1 µM | 3.333 mol/min per mol of enzyme |  | O=C[C@H](OS(=O)(=O)O)[C@@H](O)[C@H](O[C@H]1O[C@H](COS(=O)(=O)O)[C@@H](O)[C@H](O)[C@H]1NS(=O)(=O)O)[C@@H](O)CO [GlcNS6S-Ido2S, O-(α-2-sulphaminoglucosamine 6-sulphate)-(1-4)-L-idose 2-sulphate] |  |
|  |  |  |  |  | 36 | 4.1 µM | 0.11 mol/min per mol of enzyme |  | O=S(=O)(O)N[C@H]1[C@@H](O[C@H]2[C@H](O)[C@@H](OS(=O)(=O)O)C(O)O[C@H]2CO)O[C@H](CO)[C@@H](O)[C@@H]1O (stereo partly drawn) [GlcNS-Ido2S, O-(α-2-sulphaminoglucosamine)-(1-4)-L-6-idose 2-sulphate] | pH optimum of the enzyme for the substrate (heparan-N-sulfatase): 5.5 |
